Test results reported in PMC7457613 (bioRxiv, 2021).
pEC50: −log10 of the molar value. Values joined by “and” are separate entries in the source; they are usually repeats but may differ in a detail not shown here. Equal values may be shown once. Read-outs that look alike come from different tables or passages of the source.

How the values were obtained:
SARS-CoV-2 USA-WA1/2020 [1] = assay: Time-of-drug-addition assay in A549+ACE2 cells; type: cell-based; details: 12 hpi
[2] = tested on: SARS-CoV-2 USA/NYU-VC-003/2020; assay: microbe, parasite or virus in culture; type: cell-based
in vitro = details: human
SARS-CoV-2 USA-WA1/2020 [3] = assay: microbe, parasite or virus in culture; type: cell-based
BCi-NS1.1 cells = details: dose range up to 10 μM, 48 hours
[4] = tested on: polarized human airway epithelial cultures (HAEC)
SARS-CoV-2 USA-WA1/2020 [5] = type: cell-based; details: for SARS-CoV-2 infectious titers in apical washes: 10 μM basolateral, washes in 12 h increments up to 72 h; for number of SARS-CoV-2-N-expressing infected cells in HAEC: 10 μM, 72 h endpoint, immunofluorescence
COVID-19 = details: patients with more advanced infection, intravenous ref 55; cited from earlier work
SARS-CoV-2 = details: cited from earlier work
coronavirus 3CL^pro = details: cited from earlier work
[6] = Severe acute respiratory syndrome coronavirus 2, A549-ACE2

| Structure (SMILES) | minimum treatment dose that led to undetectable infection levels (SARS-CoV-2 USA-WA1/2020 [1]) | pEC50 [2] | pEC50 (SARS-CoV-2 USA-WA1/2020 [3]) | protection of A549+ACE2 cells from ring syncytia formation (CPE) (SARS-CoV-2 USA-WA1/2020 [3]) | ATP levels as a measure of cell viability (BCi-NS1.1 cells) | adverse effects on morphology of HAEC (histology) [4] | trans-epithelial resistance (TEER) over time [4] | SARS-CoV-2 infectious titers in apical washes (SARS-CoV-2 USA-WA1/2020 [5]) | number of SARS-CoV-2-N-expressing infected cells in HAEC (SARS-CoV-2 USA-WA1/2020 [5]) | CC50 (A549+ACE2 cells) | EC90 [2] | protection of A549+ACE2 cells from virus-induced CPE (SARS-CoV-2 USA-WA1/2020 [3]) | also measured |
| --- | --- | --- | --- | --- | --- | --- | --- | --- | --- | --- | --- | --- | --- |
| CCC(CC)COC(=O)[C@H](C)N[P@](=O)(OC[C@H]1O[C@@](C#N)(c2ccc3c(N)ncnn23)[C@H](O)[C@@H]1O)Oc1ccccc1 [remdesivir] | 10 µM | 6.62 | 6.62 | fully protected | caused a reduction in ATP levels compared to carrier control, albeit not statistically significantly | Neither drug caused measurable adverse effects on the morphology | negatively impacted TEER over time, albeit not statistically significantly | viral titers below the limit of detection at most time points | number of infected cells significantly reduced | – | – | – | pEC50 [2, 6]: 6.55; EC90 [2, 6]: 589 nM; CC50 (in vitro): > 10000 nM; pEC50 (SARS-CoV-2 USA-WA1/2020 [3]; [6]): 6.35; patients with benefit (COVID-19): 68% |
| COc1cccc2[nH]c(C(=O)N[C@@H](CC(C)C)C(=O)N[C@@H](C[C@@H]3CCNC3=O)C(=O)CO)cc12 [PF-00835231] | 3 µM | 6.74 and 6.49 | – | fully protected | did not detect a decrease in ATP | Neither drug caused measurable adverse effects on the morphology | did not observe this trend | viral titers below the limit of detection at most time points | number of infected cells significantly reduced | > 10000 nM | 591 nM and 1170 nM | fully protected | effect of chemical inhibition of MDR1 on antiviral efficacy (SARS-CoV-2; Vero E6 cells ref 9, 14): significantly increased; pEC50 (SARS-CoV-2; Vero E6 cells ref 9): 6.57; change in antiviral efficacy when blocking MDR1 activity (SARS-CoV-2 USA-WA1/2020 [3]): no changes in antiviral efficacy; inhibition of 3CL^pro protease activity (coronavirus 3CL^pro): potent inhibition; change in antiviral efficacy when blocking MDR1 activity (SARS-CoV-2 USA-WA1/2020 [5]): no changes in antiviral efficacy |
| CC(C)C[C@H](NC(=O)OCc1ccccc1)C(=O)N[C@@H](CC1CCNC1=O)C(O)S(=O)(=O)[O-].[Na+] (some centres unmarked) [GC-376] | 10 µM | 6.28 | 6.21 and 6.16 | – | – | – | – | – | – | > 10000 nM | 2730 nM | unable to protect cells from virus-induced CPE | pEC50 (SARS-CoV-2; Vero E6 cells ref 11): 6.05; EC90 (SARS-CoV-2 USA-WA1/2020 [3]): 4550 nM and 5250 nM |
